Literature values, collected in patent US20240016803A1, “PHARMACEUTICAL COMPOSITION COMPRISING EICOSAPENTAENOIC ACID AND DERIVATIVES THEREOF AND A STATIN” (Amarin Pharmaceuticals Ireland Limited, priority 2013, published 2024).

Details: repeated twice-daily dosing of 2 icosapent ethyl 1 g capsules (4 g/d total); previously reported

mean elimination half-life (t1/2) for total plasma EPA: 89 h
Structure (SMILES): CC/C=C\C/C=C\C/C=C\C/C=C\C/C=C\CCCC(=O)OCC [icosapent ethyl]
